Source: patent US8247407B2, priority 2007, dated 2012)
Counter-ions that a name gives are not always drawn.

Legend:
[1] = system: rats with alloxan diabetes; assay: Hypoglycemic activity, alloxan diabetes model in rats (Example 1); format: in vivo, rat
Procedure: The pharmaceutical compositions for determination of anti-diabetic action had the following composition: active compound—1 g, potato starch—1 g, water—100 ml.
(§1) The comparison of anti-diabetic action of compounds was carried out using a standard model of alloxan diabetes and metmorphin as a comparative drug. The alloxan diabetes was induced by a single subcutaneous injection of water solution of alloxan hydrate (ICN Biomedicals, USA) at a dose of 150 mg/kg to rats weighting 180-200 g that have fasted for 24 hours. The following animal groups were studied: intact rats, diabetic non-treated rats, diabetic rats receiving Polfa-Kutno Ltd.″ metmorphin daily (for 23 days, 200 mg/kg); diabetic rats receiving daily (for 20 days) the abovementioned pharmaceutical compositions containing, as an active components, the compounds described in this invention: MC-200-MC-225. The compounds were administered intragastrically once a day in starch gel at a dose of 50 mg/kg rat weight.
(§2) The experimental drug doses were selected assuming the expected therapeutic doses for man and previously determined toxic doses (LD50 of studied compounds was approximately 500-1,000 mg/kg). The metmorphin dose for rats was extrapolated from the therapeutic dose for man. Drug administration was started on the third day after alloxan injection when blood glucose level increased approximately 3-fold as compared to control value. Each group consisted of 20 animals of both genders.

[2] = system: white rats with experimental diabetes (alloxan diabetes); assay: Anti-diabetic, hypolipidemic and hypocholesteremic activity, alloxan diabetes model in rats (Example 2); format: in vivo, rat; conditions: compounds 50 mg/kg, metmorphin 200 mg/kg daily
Procedure: as §1, §2
Pharmaceutical compositions for determination of anti-diabetic action had the same composition as that given in Example I.
The comparison of the anti-diabetic action of compounds was carried out using a standard model of alloxan diabetes, as described in Example I, and metmorphin as a comparative drug.
In the course of experiment, the following parameters were recorded: animal general condition, water consumption, body mass, levels of glucose, total lipids, tri-glycerides, serum blood cholesterol, and glycosylated hemoglobin, using the generally accepted techniques (Laboratory methods of studies in clinical practice, V. V. Menshikov, Ed., Moscow, “Medicine”, 1987).

[3] = diabetic rats' blood, in 10 days, compounds 50 mg/kg intragastrically once a day in starch gel, metmorphin 200 mg/kg daily
[4] = diabetic rats' blood, in 20 days, compounds 50 mg/kg intragastrically once a day in starch gel, metmorphin 200 mg/kg daily

Row | Structure (SMILES) | Glucose content, mmol/l, in 10 days [1, 3] [mmol/L] | Glucose content, mmol/l, in 20 days [1, 4] [mmol/L] | other results
1 | CCOC(=O)c1c(CN(C)C)n(C)c2cc(-c3cccnc3)c3c(c12)CN(C)CO3 | 5.6 ± 0.3 | 5.4 ± 0.5 | 
2 | CCOC(=O)c1c(CSc2ccc(CC)cc2)n(C)c2cc(Br)c(O)c(CN(C)C)c12 [MC-202, 1-methyl-2-(p-ethyl)-phenyl-thiomethyl-3-carbethoxy-4-dimethylaminomethyl-5-hydroxy-6-bromoindole] | 7.3 ± 0.5 | 7.0 ± 0.4 | 
3 | CCOC(=O)c1c(CSc2ccccc2)n(-c2ccc(C)cc2)c2cc(Br)c(O)c(CN(C)C)c12 [MC-204, 1-p-toluyl-2-phenylthiomethyl-3-carbethoxy-4-dimethylaminomethyl-5-hydroxy-6-bromoindole] | 6.4 ± 0.3 | 6.2 ± 0.3 | 
4 | CCOC(=O)c1c(CSc2ccccc2)n(C)c2cc(-c3cccnc3)c(O)c(CN(C)C)c12 [MC-215, 1-methyl-2-phenylthiomethyl-3-carbethoxy-4-dimethylaminomethyl-5-hydroxy-6-pyridinyl-3 indole] | 5.6 ± 0.2 | 5.4 ± 0.3 | 
5 | CCOC(=O)c1c(C[S+]([O-])Cc2ccccc2OC)n(C)c2cc(Br)c(O)c(CNC(=N)N)c12 (stereo not drawn) [MC-218, 1-methyl-2-(o-methoxy)-benzylsulfinylmethyl-3-carbethoxy-4-guanidinomethyl-5-hydroxy-6-bromoindole hydrochloride] | 7.2 ± 0.4 | 7.1 ± 0.4 | 
6 | CCOC(=O)c1c(CSCc2ccccc2)n(C)c2cc(Br)c(O)c(CN(C)C)c12 [MC-206, 1-methyl-2-benzylthiomethyl-3-carbethoxy-4-dimethylaminomethyl-5-hydroxy-6-bromoindole] | 11.2 ± 0.7 | 10.8 ± 0.6 | 
7 | CCOC(=O)c1c(CS(=O)(=O)c2ccccc2)n(C)c2cc(Br)c(O)c(CN(C)C)c12 [MC-222, 1-methyl-2-phenylsulfonylmethyl-3-carbethoxy-4-dimethylaminomethyl-5-hydroxy-6-bromoindole] | 6.4 ± 0.3 | 6.2 ± 0.3 | 
8 | CCOC(=O)c1c(CSCc2ccccc2)n(C2CC2)c2cc(Br)c(O)c(CNC(=N)N)c12 [MC-219, 1-cyclopropyl-2-benzylthiomethyl-3-carbethoxy-4-guanidinomethyl-5-hydroxy-6-bromoindole] |  |  | Glucose content, mmol/l, in 10 days ([1]; rat, in vivo): 9.3 ± 0.6 mmol/L; Glucose content, mmol/l, in 20 days ([1]; rat, in vivo): 9.0 ± 0.5 mmol/L
9 | CCOC(=O)c1c(CN2CCCC2)n(C)c2cc(-c3cccnc3)c(O)c(CN(C)C)c12 [MC-212, 1-methyl-2-pyrrolidinomethyl-3-carbethoxy-4-dimethylaminomethyl-5-hydroxy-6-(pyridine-3-yl)indole trihydrochloride] | 5.2 ± 0.3 | 5.1 ± 0.3 | 
10 | CCOC(=O)c1c(CSc2ccccc2)n(C)c2cc(C#N)c(O)c(CN(C)C)c12 [MC-216, 1-methyl-2-phenylthiomethyl-3-carbethoxy-4-dimethylaminomethyl-5-hydroxy-6-cyano indole] | 8.4 ± 0.4 | 8.1 ± 0.4 | 
11 | CCOC(=O)c1c(CSc2ccccc2)n(Cc2ccccc2)c2cc(Br)c(O)c(CN(C)C)c12 [MC-205, 1-benzyl-2-phenylthiomethyl-3-carbethoxy-4-dimethylaminomethyl-5-hydroxy-6-bromoindole] | 8.4 ± 0.6 | 8.1 ± 0.5 | 
12 | CCOC(=O)c1c(C[S+]([O-])c2ccccc2)n(C)c2cc(Br)c(O)cc12 (stereo not drawn) [MC-225, 1-methyl-2-phenylsulfinylmethyl-3-carbethoxy-5-hydroxy-6-bromoindole] | 8.2 ± 0.5 | 7.9 ± 0.4 | 
13 | CCOC(=O)c1c(CS(=O)(=O)c2ccccc2)n(C)c2cc(-c3cccnc3)c(O)c(CNC)c12 [MC-214, 1-methyl-2-phenylsulfonylmethyl-3-carbethoxy-4-methylaminomethyl-5-hydroxy-6-pyridinyl-3 indole dihydrochloride] | 10.2 ± 0.8 | 9.9 ± 0.7 | 
14 | CCOC(=O)c1c(C[S+]([O-])Cc2ccc(F)cc2)n(C)c2cc(Br)c(O)c(CN3CCOCC3)c12 (stereo not drawn) [MC-220, 1-methyl-2-(p-fluor)-benzylsulfinylmethyl-3-carbethoxy-4--4-morpholinomethyl-5-hydroxy-6-bromoindole hydrochloride] | 5.9 ± 0.2 | 5.8 ± 0.2 | 
15 | CCOC(=O)c1c(CS(=O)(=O)c2ccccc2)n(C)c2cc(-c3cccnc3)c(O)c(CN(C)C)c12 [MC-210, 1-methyl-2-phenylsulfonylmethyl-3-carbethoxy-4-dimethylaminomethyl-5-hydroxy-6-(pyridine-3-yl)indole] | 5.4 ± 0.2 | 5.3 ± 0.3 | 
16 | CCOC(=O)c1c(CN(C)C)n(C)c2cc(-c3cccnc3)c(O)cc12 [MC-208, 1-methyl-2-dimethylaminomethyl-3-carbethoxy-5-hydroxy-6-(pyridine-3-yl)indole] | 9.8 ± 0.4 | 9.5 ± 0.4 | 
17 | CCOC(=O)c1c(C[S+]([O-])c2ccccc2)n(C)c2cc(Br)c(O)c(CN(C)C)c12 (stereo not drawn) [MC-223, 1-methyl-2-phenylsulfinylmethyl-3-carbethoxy-4-dimethylaminomethyl-5-hydroxy-6-bromoindole] | 8.4 ± 0.6 | 8.2 ± 0.6 | 
18 | CCOC(=O)c1c(CN(C)C)n(C)c2cc(-c3cccnc3)c(O)c(CN3CCCC3)c12 [MC-211, 1-methyl-2-dimethylaminomethyl-3-carbethoxy-4-pyrrolidinomethyl-5-hydroxy-6-(pyridine-3-yl)indole trihydrochloride] | 5.0 ± 0.2 | 4.8 ± 0.2 | 
19 | CCOC(=O)c1c(CN2CCCC2)n(C)c2cc(-c3cccnc3)c(O)cc12 [MC-207, 1-methyl-2-pyrrolidinyl-1-methyl-3-carbethoxy-5-hydroxy-6-(pyridine-3-yl)indole] |  |  | Glucose content, mmol/l, in 10 days ([1]; rat, in vivo): 5.5 ± 0.2 mmol/L; Glucose content, mmol/l, in 20 days ([1]; rat, in vivo): 5.0 ± 0.3 mmol/L; Body mass ([2]; in 10 days): 186 ± 10 g; Cholesterol ([2]; in 10 days): 2.5 ± 0.3 mmol/L; Daily water consumption ([2]; in 10 days): 24 ± 5 mL; Glucose ([2]; in 10 days): 5.5 ± 0.3 mmol/L; Glycosylated hemoglobin ([2]; in 10 days): 5.1 ± 0.3 mol %; Percent of survived rats ([2]; in 10 days): 100%; Total lipids ([2]; in 10 days): 10.2 ± 0.5 g/L; Tri-glycerides ([2]; in 10 days): 2.5 ± 0.2 mmol/L; β-lipoproteins ([2]; in 10 days): 2.0 ± 0.2 g/L; Body mass ([2]; in 20 days): 182 ± 10 g; Cholesterol ([2]; in 20 days): 1.5 ± 0.2 mmol/L; Daily water consumption ([2]; in 20 days): 20 ± 5 mL; Glucose ([2]; in 20 days): 5.0 ± 0.2 mmol/L; Glycosylated hemoglobin ([2]; in 20 days): 5.0 ± 0.3 mol %; Percent of survived rats ([2]; in 20 days): 90%; Total lipids ([2]; in 20 days): 10.2 ± 0.3 g/L; Tri-glycerides ([2]; in 20 days): 1.8 ± 0.2 mmol/L; β-lipoproteins ([2]; in 20 days): 2.1 ± 0.2 g/L
20 | CCOC(=O)c1c(CSc2ccc(C)cc2)n(C)c2cc(Br)c(O)c(CN(C)C)c12 [MC-201, 1-methyl-2-p-toluilthiomethyl-3-carbethoxy-4-dimethyl-aminomethyl-5-hydroxy-6-bromoindole] | 6.4 ± 0.4 | 6.2 ± 0.3 | 
21 | CCOC(=O)c1c(C[S+]([O-])Cc2ccc(F)c(F)c2)n(C2CC2)c2cc(Br)c(O)c(CN3CCN(C)CC3)c12 (stereo not drawn) [MC-221, 1-cyclopropyl-2-(3,4-difluor)benzylsulfinyl-methyl-3-carbethoxy-4-(N-methyl)-piperazinomethyl-5-hydroxy-6-bromoindole dihydrochloride] | 7.3 ± 0.4 | 7.2 ± 0.4 | 
